Test results as given in the NIST ThermoML archive (doi:10.1016/j.jct.2012.02.007).
± gives the expanded uncertainty stated by the source.

Conditions: 101.33 kPa, Liquid; for speed of sound: Sing-around technique in a fixed-path interferometer; for mass density: Vibrating tube method

speed of sound (293.15 K) [m/s] | mass density (293.15 K) [kg/m3] | speed of sound (308.15 K) [m/s] | mass density (308.15 K) [kg/m3] | speed of sound (323.15 K) [m/s] | mass density (323.15 K) [kg/m3] | Compound
1750.2 ± 2.2 | 1063.32 ± 0.97 | 1712.6 ± 2.2 | 1053.81 ± 0.95 | 1667.3 ± 2.2 | 1044.42 ± 0.93 | CCCCn1cc[n+](C)c1.N#CN=C=[N-] [1-butyl-3-methylimidazolium dicyanamide]
1256.7 ± 0.8 | 809.53 ± 0.12 | 1206.5 ± 0.8 | 798.06 ± 0.12 | 1156.9 ± 0.8 | 786.21 ± 0.12 | CCCCO [butan-1-ol]
1292.5 ± 1.3 | 814.54 ± 0.24 | 1242.4 ± 1.3 | 803.53 ± 0.24 | 1192.8 ± 1.3 | 792.17 ± 0.24 | CCCCCO [pentan-1-ol]

The next lines start with the compound.

Compound | speed of sound (293.15 K) [m/s] | mass density (293.15 K) [kg/m3] | speed of sound (308.15 K) [m/s] | mass density (308.15 K) [kg/m3] | speed of sound (323.15 K) [m/s] | mass density (323.15 K) [kg/m3]
CCC(C)O (stereo unspecified) [butan-2-ol] | 1229.5 ± 0.9 | 806.47 ± 0.12 | 1175.5 ± 0.8 | 793.92 ± 0.12 | 1120.3 ± 0.8 | 780.44 ± 0.13
CCCO [propan-1-ol] | 1223.4 ± 0.8 | 803.87 ± 0.12 | 1172.3 ± 0.8 | 791.79 ± 0.12 | 1121.8 ± 0.8 | 779.3 ± 0.13
CC(C)O [propan-2-ol] | 1157.3 ± 0.8 | 785.4 ± 0.13 | 1104.8 ± 0.8 | 772.6 ± 0.13 | 1051.6 ± 0.8 | 759 ± 0.14
